The results in this text go back to patent US9650390B2, “Water-soluble taxane derivatives and uses thereof” (priority 2014, dated 2017).

Like-named read-outs stand apart in the source and are kept apart here.

Series [1] can be described thus: In vitro dissociation in blood plasma of rat. Type of series: in vitro ADME, SD rats. The conditions noted are these: fresh SD rat plasma, 37° C.; for Sampling time/Dissociation percent (%) 2 min: 2 min incubation; for Sampling time/Dissociation percent (%) 5 min: 5 min incubation; for Sampling time/Dissociation percent (%) 10 min: 10 min incubation. As to the method:
The obtained water soluble taxane derivatives of the following formulae were formulated as 0.2 mg/ml aqueous solutions. […] After 2 min, 5 min and 10 min of incubation, 0.2 ml of solutions were respectively taken from each of the samples, and added to acetonitrile (0.4 ml) cooled to −20° C. for precipitation of protein.

Series [2] can be described thus: In vitro dissociation in blood plasma of rabbit. Type of series: in vitro ADME, New Zealand white rabbits. The following applies: fresh New Zealand white rabbit plasma, 37° C. On the procedure:
The obtained water soluble taxane derivatives of the following formulae were formulated as 0.2 mg/ml aqueous solutions. […]

Series [3] in a line: In vivo metabolic test of the water soluble paclitaxel derivatives in rats. The conditions noted are these: SD rats, 5 mg/kg intravenous, 5 min after administration, LC-MS.
Description: After 5 min of administration, 0.3 ml of venous blood was taken from the retrobulbar venous plexus of the rats, placed in heparinized tubes, and centrifuged at 11.000 rpm for 5 min. Blood plasma was separated, and the concentrations of the compounds in the blood plasma were determined by liquid chromatography-mass spectrometry.
The conditions of series [4]: SD rats, 5 mg/kg intravenous, 5 min after administration, LC-MS.
Description: After 5 min of administration, 0.3 ml of venous blood was taken from the retrobulbar venous plexus of the rats, placed in heparinized tubes, and centrifuged at 11,000 rpm for 5 min. Plasma was separated, and the concentrations of the compounds in the plasma were determined by liquid chromatography □-mass spectrometry.
For series [5] the following is noted: physiological saline.
For series [6], the system named is human prostate cancer PC-3. The series is described as follows: Inhibitory activity of docetaxel derivatives on subcutaneously xenografted tumor PC-3 in nude mice. Type of series: in vivo. The conditions noted are these: 14 mg/kg, D0 IV.
Excerpt: Purpose: to evaluate and compare the inhibitory activity of the water soluble docetaxel derivatives and docetaxel on subcutaneously xenografted tumor of human prostate cancer PC-3 in nude mice
Human prostate cancer PC-3 cells were subcutaneously inoculated into nude mice. After the tumor volume reached 100-150 mm^3, the animals were randomly divided into several groups, and administered with the water soluble docetaxel derivatives of the following formula and docetaxel, respectively once on the same day (D0). The tumor volume was measured 2-3 times per week, the animals were weighed and the data were recorded until day 20 (D20) after grouping.
(§1) The tumor volume (V) was calculated according to the equation: V=½×a×b^2, wherein a and b represent the length and the width, respectively.
T/C (%)=(T−T0)/(C−C0)×100, wherein T and C represent the tumor volume at the end of the experiment; and T0 and C0 represent the tumor volume at the beginning of the experiment.
Series [7] has as its system human ovarian cancer SK-OV-3. The following applies: 16 mg/kg, D0-4 IV.
Excerpt: Purpose: to evaluate and compare the inhibitory activity of the water soluble paclitaxel derivatives, paclitaxel and Abraxane® on subcutaneously xenografted tumor of human ovarian cancer SK-OV-3 in nude mice.
Human ovarian cancer SK-OV-3 cells were subcutaneously inoculated to nude mice. After the tumor volume reached 100-150 mm^3, the animals were randomly divided into groups (D0), and administered with the water soluble paclitaxel derivatives of the following formula, paclitaxel, and Abraxane®, respectively once per day for 5 days. The tumor volume was measured 2-3 times per week, the animals were weighed and the data were recorded until day 22 (D22) after grouping.
as §1
T/C (%)=(T−T0)/(C−C0)×100, wherein T and C represent the tumor volume at the end of the experiment, and T0 and C0 represent the tumor volume at the beginning of the experiment.
Where [8] appears, read: D20, PC-3 xenograft in nude mice.
[9] abbreviates: D22, SK-OV-3 xenograft in nude mice.

For the compound `CC(=O)O[C@H]1C(=O)[C@@]2(C)[C@H]([C@H](OC(=O)c3ccccc3)[C@]3(O)C[C@H](OC(=O)[C@H](OC(=O)[C@H](F)CCN(C)C)[C@@H](NC(=O)c4ccccc4)c4ccccc4)C(C)=C1C3(C)C)[C@]1(OC(C)=O)CO[C@@H]1C[C@@H]2O.Cl` [Compound 01, 2′-O-[4-N,N-dimethylamino-2(R)-fluorobutyryl]paclitaxel hydrochloride], in series [1], the “Sampling time/Dissociation percent (%) 2 min” value is 63.5%, the “Sampling time/Dissociation percent (%) 5 min” value is listed as 96.8% and the “Sampling time/Dissociation percent (%) 10 min” value is given as 100%. Moreover, in series [2], the “Sampling time/Dissociation percent (%) 2 min” value amounted to 76.5%, the “Sampling time/Dissociation percent (%) 5 min” value was 98.3% and the “Sampling time/Dissociation percent (%) 10 min” value is given as 100%. Moreover, the “detection of the administered compound in the blood plasma” value (from here on “detection of the administered compound”) in series [3] was “cannot be detected”.

As to `CC(=O)O[C@H]1C(=O)[C@@]2(C)[C@H]([C@H](OC(=O)c3ccccc3)[C@]3(O)C[C@H](OC(=O)[C@H](OC(=O)[C@@H](F)CCN(C)C)[C@@H](NC(=O)c4ccccc4)c4ccccc4)C(C)=C1C3(C)C)[C@]1(OC(C)=O)CO[C@@H]1C[C@@H]2O.Cl` [Compound 02, 2′-O-[4-N,N-dimethylamino-2(S)-fluorobutyryl]paclitaxel hydrochloride], in series [1], the “Sampling time/Dissociation percent (%) 2 min” value was 59.8%, the “Sampling time/Dissociation percent (%) 5 min” value was determined as 95.6% and the “Sampling time/Dissociation percent (%) 10 min” value came to 100%. Further, in series [2], the “Sampling time/Dissociation percent (%) 2 min” value came to 68.2%, the “Sampling time/Dissociation percent (%) 5 min” value worked out at 97.5% and the “Sampling time/Dissociation percent (%) 10 min” value was determined as 100%. Also, in series [3], the “detection of the administered compound” value is “cannot be detected” and the “mean concentration of paclitaxel in the blood plasma” value (from here on “mean concentration of paclitaxel”) amounted to 1637 ng/mL.

On to `CC(=O)O[C@H]1C(=O)[C@@]2(C)[C@H]([C@H](OC(=O)c3ccccc3)[C@]3(O)C[C@H](OC(=O)[C@H](OC(=O)C(F)CCN(C)C)[C@@H](NC(=O)c4ccccc4)c4ccccc4)C(C)=C1C3(C)C)[C@]1(OC(C)=O)CO[C@@H]1C[C@@H]2O.Cl` (stereo partly drawn) [Compound 03, 2′-O-[4-N,N-dimethylamino-2(R,S)-fluorobutyryl]paclitaxel hydrochloride], for which, in series [1], the “Sampling time/Dissociation percent (%) 2 min” value was 61.8%, the “Sampling time/Dissociation percent (%) 5 min” value is recorded as 93.1% and the “Sampling time/Dissociation percent (%) 10 min” value is recorded as 100%. Moreover, in series [2], the “Sampling time/Dissociation percent (%) 2 min” value worked out at 75.7%, the “Sampling time/Dissociation percent (%) 5 min” value was determined as 93.5% and the “Sampling time/Dissociation percent (%) 10 min” value turned out to be 100%. In series [3], the “detection of the administered compound” value was “cannot be detected” and the “mean concentration of paclitaxel” value is 1825 ng/mL.

Regarding `CC(=O)O[C@@]12CO[C@@H]1C[C@H](O)[C@@]1(C)C(=O)[C@H](O)C3=C(C)[C@@H](OC(=O)[C@H](OC(=O)C(F)CCN(C)C)[C@@H](NC(=O)OC(C)(C)C)c4ccccc4)C[C@@](O)([C@@H](OC(=O)c4ccccc4)[C@H]21)C3(C)C.Cl` (stereo partly drawn) [Compound 06, 2′-O-[4-N,N-dimethylamino-2(R,S)-fluorobutyryl]docetaxel hydrochloride], in series [1], the “Sampling time/Dissociation percent (%) 2 min” value is given as 56.4%, the “Sampling time/Dissociation percent (%) 5 min” value was 91.1% and the “Sampling time/Dissociation percent (%) 10 min” value is 100%. For the same compound, in series [2], the “Sampling time/Dissociation percent (%) 2 min” value is 75.6%, the “Sampling time/Dissociation percent (%) 5 min” value turned out to be 98.6% and the “Sampling time/Dissociation percent (%) 10 min” value turned out to be 100%. For the same compound, in series [4], the “detection of the administered compound” value was “cannot be detected” and the “mean concentration of docetaxel in the blood plasma” value came to 1621 ng/mL.

As for `CC(=O)OC1C(=O)C23CC2CC2OCC2(OC(C)=O)C3C(OC(=O)c2ccccc2)C2(O)CC(OC(=O)C(OC(=O)C(F)CC(C)N(C)C)C(NC(=O)OC(C)(C)C)c3ccccc3)C(C)=C1C2(C)C.CS(=O)(=O)O` [Compound 16, 2′-O-[4-N,N-dimethylamino-2(R)-fluorovaleryl]larotaxel methanesulfonate], in series [1], the “Sampling time/Dissociation percent (%) 2 min” value was found to be 60.2%, the “Sampling time/Dissociation percent (%) 5 min” value was 92.1% and the “Sampling time/Dissociation percent (%) 10 min” value was 100%. In addition, in series [2], the “Sampling time/Dissociation percent (%) 2 min” value stood at 63.2%, the “Sampling time/Dissociation percent (%) 5 min” value was found to be 94.1% and the “Sampling time/Dissociation percent (%) 10 min” value is listed as 100%. Besides, the “Solubility” value in series [5] amounted to 11.1 mg/mL.

As for `CC(=O)OC12COC1CCC1(C)C3OC(CN(C)C)OC3C3=C(C)C(OC(=O)C(OC(=O)C(F)CC(C)N(C)C)C(NC(=O)OC(C)(C)C)c4ncccc4F)CC(O)(C(OC(=O)c4ccccc4)C12)C3(C)C.CS(=O)(=O)O` [Compound 17, 2′-O-[4-N,N-dimethylamino-2(R)-fluorovaleryl]tesetaxel methanesulfonate], in series [1], the “Sampling time/Dissociation percent (%) 2 min” value came out at 59.3%, the “Sampling time/Dissociation percent (%) 5 min” value is 93.5% and the “Sampling time/Dissociation percent (%) 10 min” value is listed as 100%. Moreover, in series [2], the “Sampling time/Dissociation percent (%) 2 min” value is reported as 62.7%, the “Sampling time/Dissociation percent (%) 5 min” value was found to be 93.4% and the “Sampling time/Dissociation percent (%) 10 min” value is listed as 100%. Further, in series [5], the “Solubility” value was 12.3 mg/mL.

As to `CCN(C)C(C)C[C@H](C(=O)O[C@@H](C(=O)O[C@H]1C[C@@]2(O)[C@@H](OC(=O)c3ccccc3)[C@@H]3[C@]4(OC(C)=O)CO[C@@H]4C[C@H](O)[C@@]3(C)C(=O)[C@H](O)C(=C1C)C2(C)C)[C@@H](NC(=O)OC(C)(C)C)c1ccccc1)C(C)(F)F.CS(=O)(=O)O` (stereo partly drawn) [Compound C12, 2′-O-[4-N-methyl-N-ethylamino-2(R)-2-difluoroethylvaleryl]docetaxel methanesulfonate], in series [1], the “Sampling time/Dissociation percent (%) 2 min” value is 42.8%, the “Sampling time/Dissociation percent (%) 5 min” value stood at 74.8% and the “Sampling time/Dissociation percent (%) 10 min” value was 88.4%. Moreover, in series [2], the “Sampling time/Dissociation percent (%) 2 min” value was found to be 44.6%, the “Sampling time/Dissociation percent (%) 5 min” value is reported as 72.1% and the “Sampling time/Dissociation percent (%) 10 min” value amounted to 89.6%. Besides, the “Solubility” value in series [5] worked out at 11.3 mg/mL.

Regarding `CC(=O)O[C@@]12CO[C@@H]1C[C@H](O)[C@@]1(C)C(=O)[C@H](O)C3=C(C)[C@@H](OC(=O)[C@H](O)[C@@H](NC(=O)OC(C)(C)C)c4ccccc4)C[C@@](O)([C@@H](OC(=O)c4ccccc4)[C@H]21)C3(C)C` [docetaxel, reference compound], the “Weight change (%) D6” value in series [6] (D6, nude mice) is −12.3%. Besides, in series [6] (setting [8]), the “T/C (%) D20” value was −27% and the “Tumor volume (mm^3) (D20)” value amounted to 81.4 ± 25.1 mm^3. Further, in series [6] (D20, PC-3 xenograft in nude mice, P = 0.000 vs control), the “Tumor inhibitory percent (%) D20” value is listed as 127%. In addition, the “Tumor volume (mm^3) (D0)” value in series [6] (baseline at grouping (D0), PC-3 xenograft in nude mice) worked out at 111.5 ± 1.3 mm^3. Moreover, in series [4], the “mean concentration of docetaxel in the blood plasma” value was 769 ng/mL.

As to `CC(=O)O[C@H]1C(=O)[C@@]2(C)[C@H]([C@H](OC(=O)c3ccccc3)[C@]3(O)C[C@H](OC(=O)[C@H](O)[C@@H](NC(=O)c4ccccc4)c4ccccc4)C(C)=C1C3(C)C)[C@]1(OC(C)=O)CO[C@@H]1C[C@@H]2O` [paclitaxel, reference compound], the “Body weight change (%) D4” value in series [7] (D4, nude mice) is −4.8%. Also, in series [7] (setting [9]), the “T/C (%) D22” value is −60% and the “Tumor volume (mm^3) (D22)” value was 53.7 ± 11.2 mm^3. In series [7] (D22, SK-OV-3 xenograft in nude mice, P = 0.000 vs control), the “Tumor inhibitory percent (%) D22” value amounted to 160%. Also, in series [7] (baseline at grouping (D0), SK-OV-3 xenograft in nude mice), the “Tumor volume (mm^3) (D0)” value is 134.6 ± 19.7 mm^3. Also, in series [3], the “mean concentration of paclitaxel” value was 1793 ng/mL.
